Measured values reported in ChEMBL document CHEMBL1125884, “Synthesis and biochemical studies of 16- or 19-substituted androst-4-enes as aromatase inhibitors” (J Med Chem, 1991).

Assays:
Aromatase [1] = target: T1, Aromatase (Homo sapiens, UniProt P11511); test: Binding affinity for human placental microsome cytochrome P450 19A1 with 1 uM [1-beta-3H]-androstenedione
T1 sequence (P11511 whole entry): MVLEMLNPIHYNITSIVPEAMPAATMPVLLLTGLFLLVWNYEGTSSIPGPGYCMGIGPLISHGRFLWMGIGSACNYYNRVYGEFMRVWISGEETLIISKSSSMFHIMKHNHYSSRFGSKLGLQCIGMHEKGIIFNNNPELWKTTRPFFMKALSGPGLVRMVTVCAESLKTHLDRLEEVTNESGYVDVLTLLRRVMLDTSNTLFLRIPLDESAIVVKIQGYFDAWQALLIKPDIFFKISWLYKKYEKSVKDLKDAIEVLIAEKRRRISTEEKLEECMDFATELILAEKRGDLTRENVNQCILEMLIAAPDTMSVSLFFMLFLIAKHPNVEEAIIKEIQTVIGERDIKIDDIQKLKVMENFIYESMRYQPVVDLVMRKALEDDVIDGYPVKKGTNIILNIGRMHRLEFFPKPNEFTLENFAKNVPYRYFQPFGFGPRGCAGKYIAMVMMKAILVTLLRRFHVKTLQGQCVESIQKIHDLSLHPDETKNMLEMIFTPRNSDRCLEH

Aromatase [2] = target: T1, Aromatase
Description: Inhibition of 1 uM [1-beta-3H]-androstenedione binding to human placental microsome Cytochrome P450 19A1

Row | SMILES | Ki (Aromatase [1]) [nM] | IC50 (Aromatase [2]) [nM]
1 | C[C@]12CC[C@H]3[C@@H](CCC4=CCCC[C@@]43CO)[C@@H]1CCC2=O | 13 | 270
2 | C[C@]12CC[C@H]3[C@@H](CCC4=CCCC[C@@]43C(F)F)[C@@H]1CC[C@@H]2O |  | 26000
3 | CC(=O)OCC12CCCC=C1CCC1C2CCC2(C)C(OC(C)=O)CCC12 (centres undefined) |  | 38000
4 | CC12CCCC=C1CCC1C2CCC2(C)C(O)CCC12 (centres undefined) | 830 | 7300
5 | CC12CCC3C(CCC4=CCCCC43CO)C1CCC2O (centres undefined) | 170 | 2300
6 | CC(=O)OCC12CCCC=C1CCC1C2CCC2(C)C(O)CCC12 (centres undefined) |  | 44000
7 | CC12CCC3C(CCC4=CCCCC43C)C1C[C@H](Br)C2=O (some centres undefined) | 455 | 5900
8 | CC(=O)OC1CCC2C3CCC4=CCCCC4(CO)C3CCC12C (centres undefined) |  | 100000
9 | C#CC(O)C12CCCC=C1CCC1C3CCC(=O)C3(C)CCC12 (centres undefined) | 7750 | 62000
10 | CC12CCC3C(CCC4=CCCCC43C)C1C[C@@H](Br)C2=O (some centres undefined) | 228 | 4100
11 | CC12CCC3C(CCC4=CCCCC43C(F)F)C1CCC2=O (centres undefined) | 443 | 1200
12 | C[C@]12CCC(=O)C(O)=C1CC[C@@H]1[C@@H]2CC[C@]2(C)C(=O)CC[C@@H]12 [FORMESTANE] |  | 410
